Test results: patent US20250163051A1, “PYRIMIDO AROMATIC RING COMPOUND AND USE THEREOF IN DRUG” (SUNSHINE LAKE PHARMA CO., LTD., priority 2022, published 2025)

Columns and labels:
hTLR8 = target: T1, hTLR8 (Homo sapiens, UniProt Q9NR97); test: Agonistic activity on human TLR8 in HEK-Blue hTLR8 cells (QUANTI-Blue); format: cell-based; details: 24 h incubation, OD650, read-out: hTLR 8 EC50
T1 construct: expressed in transfected cells; host or cells: HEK-Blue hTLR8 cells
T1 sequence (Q9NR97 27-1041): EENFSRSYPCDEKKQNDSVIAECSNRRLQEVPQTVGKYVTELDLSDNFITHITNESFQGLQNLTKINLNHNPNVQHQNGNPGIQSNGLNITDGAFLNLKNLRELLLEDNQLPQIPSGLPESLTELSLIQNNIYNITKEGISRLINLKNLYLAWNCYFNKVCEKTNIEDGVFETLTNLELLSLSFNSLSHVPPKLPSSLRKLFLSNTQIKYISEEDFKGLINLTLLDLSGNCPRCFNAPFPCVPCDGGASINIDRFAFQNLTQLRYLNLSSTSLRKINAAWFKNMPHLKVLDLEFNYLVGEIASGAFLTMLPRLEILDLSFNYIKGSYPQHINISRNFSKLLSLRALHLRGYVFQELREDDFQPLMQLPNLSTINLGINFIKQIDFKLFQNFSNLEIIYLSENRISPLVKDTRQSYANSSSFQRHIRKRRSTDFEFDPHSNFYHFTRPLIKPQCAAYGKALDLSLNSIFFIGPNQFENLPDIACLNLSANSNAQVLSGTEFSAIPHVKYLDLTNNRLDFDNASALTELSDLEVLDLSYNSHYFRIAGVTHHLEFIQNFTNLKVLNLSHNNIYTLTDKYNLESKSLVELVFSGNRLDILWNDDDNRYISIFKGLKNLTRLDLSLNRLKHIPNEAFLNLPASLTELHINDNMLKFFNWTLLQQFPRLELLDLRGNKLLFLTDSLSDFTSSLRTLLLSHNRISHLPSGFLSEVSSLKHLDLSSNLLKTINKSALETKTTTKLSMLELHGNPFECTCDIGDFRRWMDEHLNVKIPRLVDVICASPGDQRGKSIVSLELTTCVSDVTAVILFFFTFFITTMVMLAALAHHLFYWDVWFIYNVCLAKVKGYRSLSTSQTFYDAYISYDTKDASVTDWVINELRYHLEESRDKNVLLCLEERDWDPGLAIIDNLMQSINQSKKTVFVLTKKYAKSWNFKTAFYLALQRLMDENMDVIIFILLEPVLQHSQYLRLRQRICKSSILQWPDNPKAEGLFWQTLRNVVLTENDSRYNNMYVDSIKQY
Experimental: Purpose: HEK-Blue™ hTLR7 and HEK-Blue™ hTLR8 cells were used to detect the agonist and cytotoxic activities of compounds against hTLR7 and hTLR8.
The experimental steps were as shown below: • 1) Preparation of compound: The compound was prepared into a 20 mM stock solution with DMSO, and then the stock solution was diluted 3-fold in a gradient and added to a 96-well plate, for a total of 10 concentrations, with duplicate wells for each concentration. For negative control wells, 0.5 μL DMSO was added to each well. The final DMSO concentration was 0.5%. • 2) HEK-Blue™ hTLR7 or HEK-Blue™ hTLR8 cells were suspended in culture medium and then seeded into 96-well plates containing compounds at a cell count of 50,000 per well. The compounds and cells were incubated for 24 h at 37° C., 5% Co2. • 3) QUANTI-Blue was used for the detection solution: to a mixture of 1 mL of QB reagent and 1 mL of QB buffer was added 98 mL of sterile water, the mixture was mixed and dissolved, and then placed at room temperature for 10 min. • 4) Activity test of the compound: 20 μL of the culture supernatant in step 2) was added to each well of a 96-well plate containing 180 μL of QUANTI-Blue detection solution. After incubation at 37° C. for 1 h, the absorbance at 650 nm (OD650) was detected using a multifunctional microplate reader Flextation III. • 5) Detection of cell activity: The chemiluminescent signal (RLU) was detected using the multifunctional microplate reader Flextation III according to the instructions of Celltiter-Glo. • 6) Data analysis
Activity of compounds: OD650 values were analyzed using GraphPad Prism software, and the compound dose-effect curves were fitted to calculate the EC50 values of the compounds.

CYP1A2 = target: T2, CYP1A2 (Homo sapiens, UniProt P05177); test: Inhibition of human liver microsomal CYP1A2; format: in vitro ADME; details: human liver microsomes, 10 μM test substance; read-out: Relative inhibition rate (%) CYP1A2
T2 construct: from tissue; host or cells: human liver microsomes
T2 sequence (P05177 1-516): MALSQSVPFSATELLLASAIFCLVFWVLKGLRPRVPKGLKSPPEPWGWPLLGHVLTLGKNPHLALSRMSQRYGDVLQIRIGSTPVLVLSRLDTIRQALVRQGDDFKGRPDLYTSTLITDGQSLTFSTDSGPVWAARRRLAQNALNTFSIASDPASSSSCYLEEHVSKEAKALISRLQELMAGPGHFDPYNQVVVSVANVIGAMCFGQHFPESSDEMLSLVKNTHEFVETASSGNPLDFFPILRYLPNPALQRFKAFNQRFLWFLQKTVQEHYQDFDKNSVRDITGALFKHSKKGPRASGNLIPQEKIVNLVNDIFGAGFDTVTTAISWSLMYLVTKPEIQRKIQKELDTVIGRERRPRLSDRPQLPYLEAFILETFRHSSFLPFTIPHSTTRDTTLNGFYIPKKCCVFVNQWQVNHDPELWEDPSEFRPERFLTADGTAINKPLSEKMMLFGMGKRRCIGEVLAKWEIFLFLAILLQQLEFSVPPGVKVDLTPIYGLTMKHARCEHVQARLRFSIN
Experimental: (§1) Experimental purpose: The inhibitory effects of the test compounds on the major metabolizing enzymes CYP1A2, CYP2C19, CYP2D6 and CYP3A4 in microsomes were evaluated using the human liver microsomal system. Experimental method: The test substance was incubated with a suspension of human liver microsomes containing cytochrome P450 enzymes CYP1A2, CYP2C19, CYP2D6 and CYP3A4 at a concentration of 10 μM in the final incubation system. The known substrates were metabolized by the corresponding single enzymes to generate specific metabolites, and the metabolites were determined by UPLC-MS/MS method. The relative inhibition rate (%) was calculated by the percentage reduction of metabolite production by the test compound and solvent DMSO in the same time period. N is the concentration value of the probe substrate metabolite and it is assumed that the […] with or without inhibitor at 0 min is 0. N+inh is the metabolite concentration in the group with inhibitor, and Nveh is the metabolite concentration in the group without inhibitor. The results of the inhibition test of the compounds of the present invention on human liver microsomal CYP enzymes are shown in Table C.

CYP2C19 = target: T3, CYP2C19 (Homo sapiens, UniProt P33261); test: Inhibition of human liver microsomal CYP2C19; format: in vitro ADME; details: human liver microsomes, 10 μM test substance; read-out: Relative inhibition rate (%) CYP2C19
T3 construct: from tissue; host or cells: human liver microsomes
T3 sequence (P33261 whole entry): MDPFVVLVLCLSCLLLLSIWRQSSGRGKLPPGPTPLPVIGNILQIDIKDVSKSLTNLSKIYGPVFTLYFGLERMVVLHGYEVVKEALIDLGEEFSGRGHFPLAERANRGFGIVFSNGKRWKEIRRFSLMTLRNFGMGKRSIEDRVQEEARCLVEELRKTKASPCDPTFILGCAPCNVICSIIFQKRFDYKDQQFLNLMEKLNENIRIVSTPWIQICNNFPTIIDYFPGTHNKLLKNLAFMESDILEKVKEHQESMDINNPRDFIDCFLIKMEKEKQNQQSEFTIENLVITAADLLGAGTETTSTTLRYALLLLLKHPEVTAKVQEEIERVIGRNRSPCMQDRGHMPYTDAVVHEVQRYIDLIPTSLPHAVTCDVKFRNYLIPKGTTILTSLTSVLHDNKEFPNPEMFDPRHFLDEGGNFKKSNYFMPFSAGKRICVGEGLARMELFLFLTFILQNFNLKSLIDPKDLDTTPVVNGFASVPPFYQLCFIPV
Experimental: as §1

CYP2D6 = target: T4, CYP2D6 (Homo sapiens, UniProt P10635); test: Inhibition of human liver microsomal CYP2D6; format: in vitro ADME; details: human liver microsomes, 10 μM test substance; read-out: Relative inhibition rate (%) CYP2D6
T4 construct: from tissue; host or cells: human liver microsomes
T4 sequence (P10635 whole entry): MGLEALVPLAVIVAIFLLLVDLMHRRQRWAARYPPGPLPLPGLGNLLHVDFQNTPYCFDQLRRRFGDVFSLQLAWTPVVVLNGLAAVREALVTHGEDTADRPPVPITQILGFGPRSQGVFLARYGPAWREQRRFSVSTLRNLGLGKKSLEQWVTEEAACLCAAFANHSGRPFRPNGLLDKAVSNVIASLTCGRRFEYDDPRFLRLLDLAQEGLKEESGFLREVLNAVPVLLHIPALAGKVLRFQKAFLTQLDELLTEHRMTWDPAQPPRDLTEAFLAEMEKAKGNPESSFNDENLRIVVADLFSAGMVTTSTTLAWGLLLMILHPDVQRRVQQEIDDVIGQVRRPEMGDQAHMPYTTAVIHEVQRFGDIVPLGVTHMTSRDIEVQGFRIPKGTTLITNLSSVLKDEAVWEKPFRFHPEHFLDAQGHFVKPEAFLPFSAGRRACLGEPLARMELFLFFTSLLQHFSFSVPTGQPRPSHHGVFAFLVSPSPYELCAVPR
Experimental: as §1

hERG channel = target: T5, hERG channel (Homo sapiens, UniProt Q12809); test: hERG channel current in HEK293 cells, automated patch clamp; format: cell-based; details: HEK-293 cells stably expressing hERG, whole-cell patch clamp, 0.3-30 μM
T5 construct: expressed in transfected cells; host or cells: HEK-293 cells stably expressing hERG
T5 sequence (Q12809 whole entry): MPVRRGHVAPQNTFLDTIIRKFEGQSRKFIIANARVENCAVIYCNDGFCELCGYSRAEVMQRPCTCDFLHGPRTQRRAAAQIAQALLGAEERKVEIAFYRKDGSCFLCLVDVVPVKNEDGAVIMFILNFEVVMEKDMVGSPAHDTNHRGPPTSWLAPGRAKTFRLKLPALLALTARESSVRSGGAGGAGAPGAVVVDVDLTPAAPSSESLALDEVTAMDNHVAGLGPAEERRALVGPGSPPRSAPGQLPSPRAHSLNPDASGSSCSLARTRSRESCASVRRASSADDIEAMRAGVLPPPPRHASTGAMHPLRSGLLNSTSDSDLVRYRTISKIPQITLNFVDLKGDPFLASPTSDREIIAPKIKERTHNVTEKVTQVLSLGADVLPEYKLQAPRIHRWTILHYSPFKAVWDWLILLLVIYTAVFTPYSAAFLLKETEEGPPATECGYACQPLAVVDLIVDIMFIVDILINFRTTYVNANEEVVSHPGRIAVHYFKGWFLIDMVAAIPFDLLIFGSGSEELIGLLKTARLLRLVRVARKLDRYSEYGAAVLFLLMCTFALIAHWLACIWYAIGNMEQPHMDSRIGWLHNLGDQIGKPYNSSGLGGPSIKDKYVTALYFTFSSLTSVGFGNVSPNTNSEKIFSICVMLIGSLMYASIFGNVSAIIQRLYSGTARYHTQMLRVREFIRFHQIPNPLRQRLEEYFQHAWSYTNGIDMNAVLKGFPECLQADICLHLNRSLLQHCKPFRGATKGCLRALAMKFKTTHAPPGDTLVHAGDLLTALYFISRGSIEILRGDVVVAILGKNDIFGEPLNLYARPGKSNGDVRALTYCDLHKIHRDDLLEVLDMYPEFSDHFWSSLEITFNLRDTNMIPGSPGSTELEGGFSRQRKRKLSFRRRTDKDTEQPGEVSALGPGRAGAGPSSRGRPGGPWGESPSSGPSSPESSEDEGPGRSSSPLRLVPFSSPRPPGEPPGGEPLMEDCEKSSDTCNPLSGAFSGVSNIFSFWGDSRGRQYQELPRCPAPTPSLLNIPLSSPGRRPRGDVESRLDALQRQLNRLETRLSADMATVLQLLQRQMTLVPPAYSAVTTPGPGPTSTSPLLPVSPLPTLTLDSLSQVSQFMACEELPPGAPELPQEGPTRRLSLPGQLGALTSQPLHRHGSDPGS
Experimental: Test 2: Detection of the Effect of Compounds on hERG Channel Currents Stably Expressed in HEK293 Cells Using Automated Patch Clamp
Experimental purpose: The concentration-effect relationship of the blocking effect of the compounds on hERG channels was determined using the patch clamp technique and HEK-293 cells stably expressing hERG channels to evaluate their risk of inhibitory effect on cardiac hERG potassium channels.
Experimental method: hERG cells were clamped using the patch clamp technique to form a high-resistance seal and then the membrane was broken. The whole-cell recording mode was used to record the hERG current. Each drug concentration was set to be administered twice for at least 5 minutes. The test concentrations were 0.3 μM, 1 μM, 3 μM, 10 μM and 30 μM, and the changes of the test compounds on hERG current were observed.

Row | SMILES | EC50 (hTLR8) [nM] | inhibition at 10 µM (CYP1A2) [%] | inhibition at 10 µM (CYP2C19) [%] | inhibition at 10 µM (CYP2D6) [%] | IC50 (hERG channel) [nM]
1 | C=CCCN(C)Cc1c[nH]c(=O)cc1-c1ccc2c(N[C@@](C)(CO)CCCC)nc(N)nc2c1 [Example 35] | 79 | 2.7 | 9.7 | 31.4 | –
2 | CCCC[C@](C)(CO)Nc1nc(N)nc2cc(-c3cc(=O)[nH]cc3CN(C)CCOC)cnc12 [Example 21] | 34 | -4.1 | 10.5 | 9.5 | > 30000
3 | CCCC[C@](C)(CO)Nc1nc(N)nc2cc(-c3cc(=O)n(C)cc3CN3CCCCC3)ccc12 [Example 8] | 42 | -10.5 | 9.3 | 18.1 | > 30000
4 | CCCCN(C)Cc1c[nH]c(=O)cc1-c1cnc2c(N[C@@](C)(CO)CCCC)nc(N)nc2c1 [Example 28, (R)-4-(2-Amino-4-((1-hydroxy-2-methylhexan-2-yl)amino)pyrido[3,2-d]pyrimidin-7-yl)-5-((butyl(methyl)amino)methyl)pyridin-2(1H)-one] | 63 | 5.1 | 30.5 | 12.9 | > 30000
